Laboratory results reported in US20040048870A1, “Composition for the prevention and treatment of migraine headaches” (priority 2002, published 2004).

Columns and labels:
migraine headaches = assay: patient history of earlier medication (headache questionnaire prior to institution of therapy); format: in vivo, human; conditions: before therapy; for success and side effects of earlier medication: Example 2 patient; for relief of acute pain by abortive agent: Example 1 patient
Text: There were no accompanying autonomic symptoms. […] The patient was not exposed to xanthines.

migraine [1] = conditions: 600 mg magnesium orally versus placebo; cited from earlier work
[2] = tested on: headaches in patients with low serum levels of ionized magnesium; conditions: intravenous infusion of one gram of magnesium; cited from earlier work
migraine [3] = conditions: 400 mg oral riboflavin once a day; at four months; cited from earlier work

Structure (SMILES): CCOC(=O)C1(c2ccccc2)CCN(C)CC1 [Demerol]
- success and side effects of earlier medication (migraine headaches): varying success with varying side effects

Structure (SMILES): CNS(=O)(=O)Cc1ccc2[nH]cc(CCN(C)C)c2c1 [Imitrex]
- success and side effects of earlier medication (migraine headaches): varying success with varying side effects

Structure (SMILES): CC(=O)Nc1ccc(O)cc1 [acetaminophen]
- relief of acute pain by abortive agent (migraine headaches): some, but incomplete, relief

Structure (SMILES): CC(=O)Oc1ccccc1C(=O)O [aspirin]
- relief of acute pain by abortive agent (migraine headaches): some, but incomplete, relief

Structure (SMILES): CC(C)Cc1ccc(C(C)C(=O)O)cc1 (stereo not shown) [ibuprofen]
- relief of acute pain by abortive agent (migraine headaches): some, but incomplete, relief

Structure (SMILES): [Mg+2] [magnesium]
- duration of the attacks (migraine [1]): decreased in the magnesium group, but not significantly
- frequency of attacks (migraine [1]): significant reduction
- intensity of the attacks (migraine [1]): decreased in the magnesium group, but not significantly
- headache relief [2]: relieved headaches

Structure (SMILES): Cc1cc2nc3c(=O)[nH]c(=O)nc-3n(C[C@H](O)[C@H](O)[C@H](O)CO)c2cc1C [riboflavin, Riboflavin]
- number of days the patients experienced migraine attacks (migraine [3]): statistically significant decrease
